Laboratory results as given in the NIST ThermoML archive (doi:10.1021/acs.jced.9b00752).

Test: mn = molality of the nth substance listed, in mol/kg
Conditions: 100 kPa, Liquid, Vibrating tube method

N[C@@H](Cc1c[nH]cn1)C(=O)O [L-histidine] + O
mass density [kg/m3]
Conditions | 273.65 K | 274.15 K | 274.65 K | 275.15 K | 275.65 K
m1 = 0.0078 | 1000.36 | 1000.39 | 1000.41 | 1000.43 | 1000.44
m1 = 0.0176 | 1000.94 | 1000.96 | 1000.99 | 1001 | 1001.01
m1 = 0.0269 | 1001.55 | 1001.57 | 1001.59 | 1001.61 | 1001.62
m1 = 0.048 | 1002.8 | 1002.82 | 1002.83 | 1002.85 | 1002.86
m1 = 0.0636 | 1003.83 | 1003.85 | 1003.87 | 1003.88 | 1003.88
m1 = 0.0856 | 1005.09 | 1005.11 | 1005.12 | 1005.12 | 1005.13
m1 = 0.0982 | 1005.86 | 1005.87 | 1005.88 | 1005.89 | 1005.89
m1 = 0.115 | 1006.76 | 1006.77 | 1006.77 | 1006.78 | 1006.78
m1 = 0.1268 | 1007.55 | 1007.57 | 1007.57 | 1007.57 | 1007.57
m1 = 0.138 | 1008.24 | 1008.25 | 1008.25 | 1008.25 | 1008.25
m1 = 0.1586 | 1009.57 | 1009.58 | 1009.58 | 1009.58 | 1009.58
